Experimental data as given in article PMC4747952, “Development of TASP0410457 (TASP457), a novel dihydroquinolinone derivative as a PET radioligand for central histamine H3 receptors” (EJNMMI Research, 2016).

Tests used:
H3Rs [1] = assay: PET in anesthetized rhesus monkeys with arterial blood sampling; format: in vivo, rhesus monkey; settings: for V T, Logan graphical analysis, Scan duration 60 min / V T, Logan graphical analysis, Scan duration 70 min / V T, Logan graphical analysis, Scan duration 80 min / V T, Logan graphical analysis, Scan duration 90 min / V T, One-tissue compartment model, Scan duration 90 min: Mean ± S.D., n = 3
Description: For a detailed pharmacokinetic PET study using [^11C]TASP0410457 with arterial blood sampling, three male rhesus monkeys weighing 5–7 kg were scanned with the SHR-7700 PET camera. The monkeys were initially anesthetized with an intramuscular injection of ketamine (10 mg/kg), intubated, and subsequently kept anesthetized with 1–2 % isoflurane. Electrocardiogram and blood oxygen saturation levels were monitored, and body temperature was maintained by a heating pad throughout the experiment. Arterial blood (1–2.5 mL) was collected from the saphenous artery at 10, 20, 30, 40, 50, 60, and 90 s and at 2, 3, 4, 5, 10, 15, 30, 60, and 90 min after the intravenous injection of [^11C]TASP0410457 (injected radioactivity, 159 ± 30 MBq; mass dose, 1.2 ± 0.3 μg; mean ± S.D., n = 3).
The arterial blood was centrifuged at 20,000×g for 3 min at 4 °C to separate the plasma. Radioactivity in total blood and plasma was determined using a 1480 WIZARD gamma counter (PerkinElmer), and was decay-corrected to the injection time. Arterial plasma collected at 1, 5, 15, 30, 60, and 90 min was used to analyze radioactive metabolites of [^11C]TASP0410457. Two hundred microliters of plasma was mixed with 200 μL of ice-cold acetonitrile, and the mixtures were centrifuged at 20,000×g for 3 min at 4 °C. Fifty to […] of the resultant supernatants were separated using HPLC (JASCO, Tokyo, Japan) on an Atlantis T3 column (4.6 × 50 mm, Waters, Milford, MA) with a mobile phase consisting of 10 mM of ammonium acetate/acetonitrile (68:32) at a flow rate of 1 mL/min. The fraction of unmetabolized [^11C]TASP0410457 was determined by measuring the areas of the HPLC peaks corresponding to [^11C]TASP0410457 and its radiometabolites.
(§1) Emission scan images were reconstructed using a 4.0-mm Colsher filter. ROIs were placed on the anterior cingulate cortex, striatum, thalamus, hippocampus, cerebellum, frontal cortex, temporal cortex, occipital cortex, and pons-medulla using PMOD software, with reference to an MRI template as described previously. Tissue TACs were generated as in the rat PET image analysis.
For PET study in anesthetized monkeys, metabolite-corrected plasma TACs were used as arterial input functions. The regional total volume of distribution (VT) was estimated by Logan’s graphical plot and one-tissue compartment model using PMOD software.

central H3Rs = assay: Receptor occupancy assay, [^11C]TASP0410457-PET, Lassen's plot; format: in vivo, monkey; settings: monkey
Description: Occupancy of central H3Rs by ciproxifan, a selective antagonist/inverse agonist, was quantified by [^11C]TASP0410457-PET scans of an anesthetized monkey with arterial blood sampling. […] Receptor occupancy of ciproxifan was determined using Lassen’s plot without any reference regions using the following equation: VT^Baseline−VT^Ciproxifan=OccVT^Baseline−VND where VT^Baseline and VT^Ciproxifan are the regional VT values at baseline and in the ciproxifan challenge, respectively, VND is the non-displaceable distribution volume, and Occ is the occupancy.

H3Rs [2] = molecular target: T1, H3Rs (Macaca mulatta, UniProt Q865E1); assay: PET in conscious rhesus monkey; format: in vivo, rhesus monkey (Macaca mulatta)
T1 construct: from tissue; host or cells: brain of living rhesus monkeys
Description: A male rhesus monkey (Macaca mulatta, weighing 6–7 kg) was used for a comparative PET analysis of [^11C]TASP0410457 and [^11C]TASP0434988. PET scans were performed using a high-resolution SHR-7700 animal PET camera (Hamamatsu Photonics, Hamamatsu, Japan). Following transmission scans for attenuation correction using a ^68Ge-^68Ga point source, emission scans were performed on a conscious monkey as described previously, in 3D acquisition mode (frames: 10 s × 12, 30 s × 6, 1 min × 5, 2 min × 5 and 5 min × 14) for 90 min after the intravenous injection of [^11C]TASP0410457 (169–176 MBq) or [^11C]TASP0434988 (173–188 MBq). Briefly, the monkey was immobilized by joining the acrylic cap on the monkey head with the fixation device during PET scans. To assess a homologous competition for the target binding sites, unlabeled TASP0410457 or TASP0434988 was injected intravenously at a dose of 1 mg/kg at 30 s before injection of the corresponding radioligand.
as §1

[3] = Anterior cingulate cortex, monkey brain

T1 sequence (Q865E1 1-445): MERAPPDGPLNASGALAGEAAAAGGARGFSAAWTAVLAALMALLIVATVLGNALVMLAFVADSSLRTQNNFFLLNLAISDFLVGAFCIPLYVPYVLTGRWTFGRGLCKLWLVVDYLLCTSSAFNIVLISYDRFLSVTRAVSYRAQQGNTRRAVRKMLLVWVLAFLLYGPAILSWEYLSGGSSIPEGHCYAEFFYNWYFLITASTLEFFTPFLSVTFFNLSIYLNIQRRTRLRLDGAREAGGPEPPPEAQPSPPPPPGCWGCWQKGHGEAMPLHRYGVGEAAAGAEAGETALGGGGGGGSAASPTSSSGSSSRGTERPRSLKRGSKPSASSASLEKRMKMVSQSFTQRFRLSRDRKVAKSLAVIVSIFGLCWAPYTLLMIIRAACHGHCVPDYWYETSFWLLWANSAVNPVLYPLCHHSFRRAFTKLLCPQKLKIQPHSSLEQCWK

V T, Logan graphical analysis, Scan duration 60 min (H3Rs [1]; [3]): 18.4 ± 2.7 mL/cm^3 | V T, Logan graphical analysis, Scan duration 70 min (H3Rs [1]; [3]): 18.6 ± 2.8 mL/cm^3 | V T, Logan graphical analysis, Scan duration 80 min (H3Rs [1]; [3]): 19.1 ± 3.2 mL/cm^3 | V T, Logan graphical analysis, Scan duration 90 min (H3Rs [1]; [3]): 19.5 ± 3.4 mL/cm^3 | V T, One-tissue compartment model, Scan duration 90 min (H3Rs [1]; [3]): 20.3 ± 3.3 mL/cm^3 | V T, Logan graphical analysis, Scan duration 60 min (H3Rs [1]; Cerebellum, monkey brain): 12.1 ± 1.2 mL/cm^3 | V T, Logan graphical analysis, Scan duration 70 min (H3Rs [1]; Cerebellum, monkey brain): 12.4 ± 1.3 mL/cm^3 | V T, Logan graphical analysis, Scan duration 80 min (H3Rs [1]; Cerebellum, monkey brain): 12.7 ± 1.5 mL/cm^3 | V T, Logan graphical analysis, Scan duration 90 min (H3Rs [1]; Cerebellum, monkey brain): 13.0 ± 1.7 mL/cm^3 | V T, One-tissue compartment model, Scan duration 90 min (H3Rs [1]; Cerebellum, monkey brain): 12.8 ± 1.7 mL/cm^3 | V T, Logan graphical analysis, Scan duration 60 min (H3Rs [1]; Frontal cortex, monkey brain): 12.3 ± 1.6 mL/cm^3 | V T, Logan graphical analysis, Scan duration 70 min (H3Rs [1]; Frontal cortex, monkey brain): 12.5 ± 1.7 mL/cm^3 | V T, Logan graphical analysis, Scan duration 80 min (H3Rs [1]; Frontal cortex, monkey brain): 12.8 ± 1.8 mL/cm^3 | V T, Logan graphical analysis, Scan duration 90 min (H3Rs [1]; Frontal cortex, monkey brain): 13.0 ± 2.0 mL/cm^3 | V T, One-tissue compartment model, Scan duration 90 min (H3Rs [1]; Frontal cortex, monkey brain): 13.4 ± 1.8 mL/cm^3 | V T, Logan graphical analysis, Scan duration 60 min (H3Rs [1]; Hippocampus, monkey brain): 13.0 ± 1.0 mL/cm^3 | V T, Logan graphical analysis, Scan duration 70 min (H3Rs [1]; Hippocampus, monkey brain): 13.2 ± 1.0 mL/cm^3 | V T, Logan graphical analysis, Scan duration 80 min (H3Rs [1]; Hippocampus, monkey brain): 13.6 ± 1.2 mL/cm^3 | V T, Logan graphical analysis, Scan duration 90 min (H3Rs [1]; Hippocampus, monkey brain): 13.9 ± 1.4 mL/cm^3 | V T, One-tissue compartment model, Scan duration 90 min (H3Rs [1]; Hippocampus, monkey brain): 13.9 ± 1.3 mL/cm^3 | V T, Logan graphical analysis, Scan duration 60 min (H3Rs [1]; Occipital cortex, monkey brain): 11.7 ± 1.6 mL/cm^3 | V T, Logan graphical analysis, Scan duration 70 min (H3Rs [1]; Occipital cortex, monkey brain): 11.8 ± 1.6 mL/cm^3 | V T, Logan graphical analysis, Scan duration 80 min (H3Rs [1]; Occipital cortex, monkey brain): 12.0 ± 1.8 mL/cm^3 | V T, Logan graphical analysis, Scan duration 90 min (H3Rs [1]; Occipital cortex, monkey brain): 12.1 ± 1.9 mL/cm^3 | V T, One-tissue compartment model, Scan duration 90 min (H3Rs [1]; Occipital cortex, monkey brain): 12.7 ± 2.0 mL/cm^3 | V T, Logan graphical analysis, Scan duration 60 min (H3Rs [1]; Pons-medulla, monkey brain): 8.5 ± 0.6 mL/cm^3 | V T, Logan graphical analysis, Scan duration 70 min (H3Rs [1]; Pons-medulla, monkey brain): 8.6 ± 0.7 mL/cm^3 | V T, Logan graphical analysis, Scan duration 80 min (H3Rs [1]; Pons-medulla, monkey brain): 8.8 ± 0.7 mL/cm^3 | V T, Logan graphical analysis, Scan duration 90 min (H3Rs [1]; Pons-medulla, monkey brain): 9.1 ± 0.9 mL/cm^3 | V T, One-tissue compartment model, Scan duration 90 min (H3Rs [1]; Pons-medulla, monkey brain): 8.8 ± 0.9 mL/cm^3 | V T, Logan graphical analysis, Scan duration 60 min (H3Rs [1]; Striatum, monkey brain): 21.2 ± 3.0 mL/cm^3 | V T, Logan graphical analysis, Scan duration 70 min (H3Rs [1]; Striatum, monkey brain): 21.5 ± 3.0 mL/cm^3 | V T, Logan graphical analysis, Scan duration 80 min (H3Rs [1]; Striatum, monkey brain): 21.9 ± 3.3 mL/cm^3 | V T, Logan graphical analysis, Scan duration 90 min (H3Rs [1]; Striatum, monkey brain): 22.6 ± 3.8 mL/cm^3 | V T, One-tissue compartment model, Scan duration 90 min (H3Rs [1]; Striatum, monkey brain): 23.2 ± 3.6 mL/cm^3 | V T, Logan graphical analysis, Scan duration 60 min (H3Rs [1]; Temporal cortex, monkey brain): 12.3 ± 1.6 mL/cm^3 | V T, Logan graphical analysis, Scan duration 70 min (H3Rs [1]; Temporal cortex, monkey brain): 12.4 ± 1.7 mL/cm^3 | V T, Logan graphical analysis, Scan duration 80 min (H3Rs [1]; Temporal cortex, monkey brain): 12.5 ± 1.8 mL/cm^3 | V T, Logan graphical analysis, Scan duration 90 min (H3Rs [1]; Temporal cortex, monkey brain): 12.9 ± 2.1 mL/cm^3 | V T, One-tissue compartment model, Scan duration 90 min (H3Rs [1]; Temporal cortex, monkey brain): 13.3 ± 2.1 mL/cm^3 | V T, Logan graphical analysis, Scan duration 60 min (H3Rs [1]; Thalamus, monkey brain): 15.1 ± 1.7 mL/cm^3 | V T, Logan graphical analysis, Scan duration 70 min (H3Rs [1]; Thalamus, monkey brain): 15.4 ± 1.9 mL/cm^3 | V T, Logan graphical analysis, Scan duration 80 min (H3Rs [1]; Thalamus, monkey brain): 15.6 ± 1.9 mL/cm^3 | V T, Logan graphical analysis, Scan duration 90 min (H3Rs [1]; Thalamus, monkey brain): 16.0 ± 2.1 mL/cm^3 | V T, One-tissue compartment model, Scan duration 90 min (H3Rs [1]; Thalamus, monkey brain): 16.1 ± 1.8 mL/cm^3 | time of peak radioligand retention in the striatum (H3Rs [1]; anesthetized monkeys): around 30 min | time of plasma radioactivity peak (H3Rs [1]; anesthetized monkeys, arterial plasma): approximately 1 min | peak SUV in the striatum (H3Rs [1]; anesthetized monkeys, mean ± S.D.): 5.0 ± 0.8 | striatal VT (H3Rs [1]; monkey): exceeded 20 mL/cm^3 | change of VT values when scan endpoint changed between 90 and 60 min (H3Rs [1]; monkey brain, Logan's graphical analysis, relative to values for 90 min): ≤ 7% | fraction of unmetabolized radioligand of total plasma radioactivity (H3Rs [1]; monkey plasma at 90 min): 34% | Non-displaceable distribution volume (central H3Rs; Lassen's plot): 4.0 mL/cm^3 | peak SUV in the striatum (H3Rs [2]; another monkey in a conscious condition (additional PET study)): 3.0 | time of peak brain uptake after the injection (H3Rs [2]; conscious monkey PET): ≤ 30 min | peak SUV in the striatum (H3Rs [2]; first conscious monkey): 3.4
Structure (SMILES): [11CH3]Oc1ccc(N2C(=O)CCc3cc(OC4CCN(C5CCC5)CC4)ccc32)cn1 [[^11C]TASP0410457]
specific radioligand binding as share of the radioactivity in the striatum (central H3Rs): more than 80%
